Laboratory results as given in patent US20030166932A1 (priority 2002, published 2003).
Each block holds one compound with its values, some of them ahead of it.

Tests used:
RARβ = target: T1, RARβ (Homo sapiens, UniProt P10826); assay: ligand binding assay; conditions: read-out: RAR Bind. Ki (nM) β
T1 sequence (P10826 1-455): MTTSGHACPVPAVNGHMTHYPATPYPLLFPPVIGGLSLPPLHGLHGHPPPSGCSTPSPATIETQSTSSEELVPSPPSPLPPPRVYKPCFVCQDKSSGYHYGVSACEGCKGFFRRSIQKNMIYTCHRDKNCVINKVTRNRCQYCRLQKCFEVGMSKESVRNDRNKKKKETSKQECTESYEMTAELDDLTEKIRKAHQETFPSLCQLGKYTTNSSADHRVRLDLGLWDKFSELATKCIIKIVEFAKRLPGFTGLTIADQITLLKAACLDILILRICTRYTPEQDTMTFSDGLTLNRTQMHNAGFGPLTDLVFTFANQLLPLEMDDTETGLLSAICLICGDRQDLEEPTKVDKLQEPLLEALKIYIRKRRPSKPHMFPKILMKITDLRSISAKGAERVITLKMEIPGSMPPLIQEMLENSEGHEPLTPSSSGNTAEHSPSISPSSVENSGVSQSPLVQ
Description: (§1) The results obtained in this assay are expressed in EC50 numbers, as they are also in the chimeric receptor transactivation assay. The results of ligand binding assay are expressed in Kd numbers.
(§2) Particularly, the transactivation data pertaining to RAR receptors were obtained in the chimeric assay, and the data pertaining to transactivation of RXR receptors were obtained in the holoreceptor transactivation assay.

RXRβ [1] = target: T2, RXRβ (UniProt P28704); assay: ligand binding assay; conditions: read-out: RXR Bind Ki (nM) β
T2 sequence (P28704 1-520): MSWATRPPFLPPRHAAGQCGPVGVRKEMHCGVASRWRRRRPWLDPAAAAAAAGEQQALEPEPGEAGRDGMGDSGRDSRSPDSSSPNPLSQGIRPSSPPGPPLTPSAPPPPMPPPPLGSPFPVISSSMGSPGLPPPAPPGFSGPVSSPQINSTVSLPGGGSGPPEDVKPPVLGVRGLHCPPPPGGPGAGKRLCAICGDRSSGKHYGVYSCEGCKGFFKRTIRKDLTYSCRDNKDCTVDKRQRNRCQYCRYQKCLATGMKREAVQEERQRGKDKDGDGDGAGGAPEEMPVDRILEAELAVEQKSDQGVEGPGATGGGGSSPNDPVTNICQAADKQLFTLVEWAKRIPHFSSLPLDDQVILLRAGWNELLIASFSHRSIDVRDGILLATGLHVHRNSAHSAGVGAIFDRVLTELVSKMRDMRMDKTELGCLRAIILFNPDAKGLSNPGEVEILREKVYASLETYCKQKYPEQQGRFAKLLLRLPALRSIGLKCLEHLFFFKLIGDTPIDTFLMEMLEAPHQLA
Description: as §1, §2

RARγ = target: T3, RARγ (Homo sapiens, UniProt P13631); assay: ligand binding assay; conditions: read-out: RAR Bind. Ki (nM) Y
T3 sequence (P13631 1-454): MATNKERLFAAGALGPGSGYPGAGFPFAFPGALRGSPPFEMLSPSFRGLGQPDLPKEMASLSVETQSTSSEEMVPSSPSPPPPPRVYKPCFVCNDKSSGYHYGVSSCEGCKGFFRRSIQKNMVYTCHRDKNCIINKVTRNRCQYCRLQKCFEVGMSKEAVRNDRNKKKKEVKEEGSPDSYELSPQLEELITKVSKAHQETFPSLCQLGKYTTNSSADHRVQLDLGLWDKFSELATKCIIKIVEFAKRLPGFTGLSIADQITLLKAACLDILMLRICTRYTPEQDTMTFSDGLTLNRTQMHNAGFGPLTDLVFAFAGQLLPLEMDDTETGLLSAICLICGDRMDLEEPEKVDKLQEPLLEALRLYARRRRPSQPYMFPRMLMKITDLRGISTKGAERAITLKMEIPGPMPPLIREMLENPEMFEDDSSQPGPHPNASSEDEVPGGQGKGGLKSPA
Description: as §1, §2

RXRα [2] = target: T4, RXRα (Homo sapiens, UniProt P19793); assay: ligand binding assay
T4 sequence (P19793 1-462): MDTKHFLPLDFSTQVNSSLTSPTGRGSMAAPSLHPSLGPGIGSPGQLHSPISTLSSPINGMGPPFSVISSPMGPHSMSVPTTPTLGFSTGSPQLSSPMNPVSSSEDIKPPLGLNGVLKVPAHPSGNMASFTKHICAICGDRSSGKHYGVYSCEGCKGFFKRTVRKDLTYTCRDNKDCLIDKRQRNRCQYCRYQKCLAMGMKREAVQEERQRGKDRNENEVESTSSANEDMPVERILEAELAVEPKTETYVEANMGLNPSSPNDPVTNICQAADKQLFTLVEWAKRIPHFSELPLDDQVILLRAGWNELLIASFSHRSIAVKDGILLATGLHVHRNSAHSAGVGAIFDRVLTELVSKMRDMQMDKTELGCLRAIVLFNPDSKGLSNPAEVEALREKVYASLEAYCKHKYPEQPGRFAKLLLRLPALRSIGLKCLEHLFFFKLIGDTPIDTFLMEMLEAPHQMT
Description: as §1, §2

RXRγ = target: T5, RXRγ (UniProt P28705); assay: holoreceptor transactivation assay; format: cell-based; conditions: for EC50: NA = Not Active, read-out: RXR Trans. EC50 (nM) Y; for % efficacy, RXR Trans. Y: relative to 10^−6 M AGN 194204
T5 sequence (P28705 1-463): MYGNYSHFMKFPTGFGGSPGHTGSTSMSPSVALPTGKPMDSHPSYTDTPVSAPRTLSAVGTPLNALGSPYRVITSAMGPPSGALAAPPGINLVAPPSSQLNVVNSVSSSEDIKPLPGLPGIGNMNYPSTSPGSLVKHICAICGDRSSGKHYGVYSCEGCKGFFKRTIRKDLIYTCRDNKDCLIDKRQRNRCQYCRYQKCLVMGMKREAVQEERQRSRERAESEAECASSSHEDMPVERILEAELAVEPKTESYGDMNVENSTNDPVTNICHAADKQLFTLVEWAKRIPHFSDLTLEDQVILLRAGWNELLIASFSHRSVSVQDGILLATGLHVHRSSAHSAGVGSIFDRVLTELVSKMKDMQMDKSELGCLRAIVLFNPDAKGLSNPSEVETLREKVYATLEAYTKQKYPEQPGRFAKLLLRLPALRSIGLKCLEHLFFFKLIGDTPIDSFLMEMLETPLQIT
Description: as §1, §2

RXRα [3] = target: T4, RXRα; assay: holoreceptor transactivation assay; conditions: for Emax: read-out: % efficacy, RXR Trans. α
Description: as §1, §2

RXRβ [4] = target: T2, RXRβ; assay: holoreceptor transactivation assay; format: cell-based; conditions: for % efficacy, RXR Trans. β: relative to 10^−6 M AGN 194204; for EC50: NA = Not Active, read-out: RXR Trans. EC50 (nM) β
Description: as §1, §2

Compound: CCCCCCOc1cc2c(cc1N(CC)c1ccc(C(=O)O)cc1)C(C)=CCC2(C)C [Compound 142, 4-[Ethyl-(3-n-hexyloxy-5,5,8-trimethyl-5,6-dihydronaphthalen-2-yl)amino]benzoic Acid]
Ki (RARβ): 1000 nM
Ki (RXRβ [1]): 111 nM
Ki (RARγ): > 1000 nM
Ki (RXRα [2]): 0.19 µM

Compound: CCC1=CCC(C)(C)c2cc(N(CC)c3ccc(C(=O)O)cc3)c(C)cc21 [Compound 59, 4-[Ethyl(5-ethyl-3,8,8-trimethyl-7,8-dihydronaphthalen-2-yl)amino]benzoic acid]
Ki (RARβ): > 10000 nM
Emax (RXRα [3]): 100%
Ki (RARγ): > 10000 nM
% efficacy, RXR Trans. Y (RXRγ): (100) %
Ki (RXRα [2]): 0.282 µM
% efficacy, RXR Trans. β (RXRβ [4]): (100) %

Compound: CCCN(c1ccc(C(=O)O)cc1)c1cc2c(cc1C)C(C(C)C)=CCC2(C)C [Compound 54, 4-[n-Propyl-(5-isopropyl-3,8,8-trimethyl-7,8-dihydronaphthalen-2-yl)lamino]benzoic acid]
Ki (RARβ): > 10000 nM
EC50 (RXRα [3]): 0.378 µM
Emax (RXRα [3]): 66%
Ki (RXRβ [1]): > 1000 nM
Ki (RARγ): > 10000 nM
% efficacy, RXR Trans. Y (RXRγ): (85) %
Ki (RXRα [2]): 0.485 µM
EC50 (RXRβ [4]): > 1000 nM
% efficacy, RXR Trans. β (RXRβ [4]): (40) %

Compound: CCC1=CCC(C)(C)c2cc(N(CC)c3ccc(C(=O)O)cc3)ccc21 [Compound 75, 4-[Ethyl-(5-ethyl-8,8-dimethyl-7,8-dihydro-naphthalen-2-yl)-amino]-benzoic acid]
Ki (RARβ): > 10000 nM
EC50 (RXRα [3]): 0.319 µM
Emax (RXRα [3]): 100%
Ki (RXRβ [1]): 806 nM
Ki (RARγ): > 10000 nM
% efficacy, RXR Trans. Y (RXRγ): (95) %
Ki (RXRα [2]): 0.442 µM
% efficacy, RXR Trans. β (RXRβ [4]): (75) %

Compound: Cc1cc2c(cc1N(C)c1ccc(C(=O)O)cc1)C(C)(C)CC=C2C(C)C [Compound 52, 4-[Methyl-(5-isopropyl-3,8,8-trimethyl-7,8-dihydronaphthalen-2-yl)amino]benzoic acid]
Ki (RARβ): > 10000 nM
Emax (RXRα [3]): 75%
Ki (RXRβ [1]): 2700 nM
Ki (RARγ): > 10000 nM
% efficacy, RXR Trans. Y (RXRγ): (855) %
Ki (RXRα [2]): 1.7 µM
EC50 (RXRβ [4]): > 1000 nM
% efficacy, RXR Trans. β (RXRβ [4]): (25) %

Compound: CCCCCCCOc1cc2c(cc1N(CC)c1ccc(C(=O)O)cc1)C(C)=CCC2(C)C [Compound 143, 4[Ethyl-(3-n-heptyloxy-5,5,8-trimethyl-5,6-dihydronaphthalen-2-yl)amino]benzoic acid]
Ki (RARβ): 1700 nM
Ki (RXRβ [1]): 449 nM
Ki (RARγ): 8400 nM
Ki (RXRα [2]): 0.175 µM

Compound: CCN(c1ccc(C(=O)O)cc1)c1cc2c(cc1C)C(C)(C)CC=C2C(C)C [Compound 25, 4-[Ethyl(8-isopropyl-3,5,5-trimethyl-5,6-dihydronaphthalen-2-yl)amino]benzoic acid]
Ki (RARβ): 6400 nM
EC50 (RXRα [3]): < 0.0001 µM
Emax (RXRα [3]): 97%
Ki (RXRβ [1]): 20 nM
Ki (RARγ): 4400 nM
EC50 (RXRγ): 0.2 nM
% efficacy, RXR Trans. Y (RXRγ): (105) %
Ki (RXRα [2]): 0.002 µM
EC50 (RXRβ [4]): 0.9 nM
% efficacy, RXR Trans. β (RXRβ [4]): (96) %

Compound: CCN(c1ccc(C(=O)O)cc1)c1cc2c(cc1C)C(C)(C)CC=C2C [Compound 23, 4-[Ethyl(3,5,5,8-tetramethyl-5,6-dihydronaphthalen-2-yl)amino]benzoic acid]
Ki (RARβ): 16000 nM
EC50 (RXRα [3]): 0.021 µM
Emax (RXRα [3]): 101%
Ki (RXRβ [1]): 309 nM
EC50 (RXRγ): 41 nM
% efficacy, RXR Trans. Y (RXRγ): (119) %
Ki (RXRα [2]): 0.008 µM
EC50 (RXRβ [4]): 149 nM
% efficacy, RXR Trans. β (RXRβ [4]): (101) %

Compound: CCN(c1ccc(C(=O)O)cc1)c1cc2c(cc1OCc1ccccc1)C(C)(C)CC=C2C [Compound 144, 4-[(3-Benzyloxy-5,5,8-trimethyl-5,6-dihydronaphthalen-2-yl)ethylamino]benzoic acid]
Ki (RARβ): 2700 nM
Ki (RXRβ [1]): 224 nM
Ki (RARγ): 8100 nM
Ki (RXRα [2]): 0.077 µM

Compound: CC1=CCC(C)(C)c2cc(N(CC3CC3)c3ccc(C(=O)O)cc3)c(C)cc21 [Compound 47, 4-[Cyclopropylmethyl(3,5,8,8-tetramethyl-7,8-dihydronaphthalen-2-yl)amino]benzoic acid]
Ki (RARβ): > 10000 nM
Emax (RXRα [3]): 65%
Ki (RXRβ [1]): > 1000 nM
Ki (RARγ): > 10000 nM
% efficacy, RXR Trans. Y (RXRγ): (70) %
Ki (RXRα [2]): 2.5 µM

The remaining lines, values ahead:

Ki (RARβ): 4800 nM
Ki (RXRβ [1]): 106 nM
Ki (RARγ): 8900 nM
Ki (RXRα [2]): 0.022 µM
Compound: CCCCCCOc1cc2c(cc1N(CC)c1ccc(C(=O)O)cc1)C(C(C)C)=CCC2(C)C [Compound 153, 4-[Ethyl-(3-n-hexyloxy-8-isopropyl-5,5-dimethyl-5,6-dihydronaphthalen-2-yl)amino]benzoic acid]

Ki (RARβ): 771 nM
Ki (RXRβ [1]): 475 nM
Ki (RARγ): 6000 nM
EC50 (RXRγ): > 1000 nM
% efficacy, RXR Trans. Y (RXRγ): (10) %
Ki (RXRα [2]): 0.229 µM
Compound: CCCCCCOc1cc2c(cc1N(CCC)c1ccc(C(=O)O)cc1)C(C)=CCC2(C)C [Compound 145, 4-[(3-n-Hexyloxy-5,5,8-trimethyl-5,6-dihydronaphthalen-2-yl)-n-propylamino]benzoic acid]

Ki (RARβ): 4800 nM
Ki (RXRβ [1]): 501 nM
Ki (RARγ): 15000 nM
EC50 (RXRγ): 280 nM
% efficacy, RXR Trans. Y (RXRγ): (13) %
Ki (RXRα [2]): 0.241 µM
Compound: CCCN(c1ccc(C(=O)O)cc1)c1cc2c(cc1OCc1ccccc1)C(C)(C)CC=C2C [Compound 147, 4-[(3-Benzyloxy-5 5,8-trimethyl-5,6-dihydronaphthalen-2-yl)-n-propylamino]benzoic acid]

Ki (RARβ): 576 nM
Ki (RXRβ [1]): 429 nM
Ki (RARγ): 2800 nM
Ki (RXRα [2]): 0.206 µM
Compound: CCCCCCCOc1cc2c(cc1N(CCC)c1ccc(C(=O)O)cc1)C(C)=CCC2(C)C [Compound 146, 4-[(3-n-Heptyloxy-5 5,8-trimethyl-5,6-dihydronaphthalen-2-yl)-n-propylamino]benzoic acid]

EC50 (RXRα [3]): 0.001 µM
Emax (RXRα [3]): 120%
EC50 (RXRγ): 2 nM
% efficacy, RXR Trans. Y (RXRγ): (125) %
EC50 (RXRβ [4]): 9 nM
% efficacy, RXR Trans. β (RXRβ [4]): (132) %
Compound: CCN(c1ccc2c(c1)C(C(C)(C)C)=CCC2(C)C)c1ccc(C(=O)O)cn1 [Compound 173, 6-[(8-t-Butyl-5,5-dimethyl-5,6-dihydro-naphthalen-2-yl)-ethyl-amino]-nicotinic acid]
